Test system: Bacillus subtilis
Test: Antibacterial activity against Bacillus subtilis at 40 ug by agar diffusion assay
Assay type: functional
Conditions: read-out: IZ

## O=C(O)C(=O)C1=C(O)/C(=C/c2ccc(O)c(Cl)c2)NC1=O [PACHYDERMIN]
  zone of inhibition at 40 µg/disc: 1 mm

Reference: ChEMBL document CHEMBL1157238, “An unusual oxalylated tetramic acid from the New Zealand basidiomycete Chamonixia pachydermis” (2006)
